Values of other authors in patent US9308182B2 (TEVA PHARMACEUTICAL INDUSTRIES, LTD., priority 2012, dated 2016).
Read-outs that look alike come from different tables or passages of the source.

Key:
[1] = cited from earlier work
[2] = test system: MAO; conditions: metabolite of rasagiline; cited from earlier work

Structure (SMILES) | increase in blood pressure ([1]; 1 mg injected into the portal vein) [mmHg] | increase in blood pressure ([1]; 1 mg injected systematically) [mmHg] | MAO inhibition [2]
NCCc1ccc(O)cc1 [Tyramine, tyramine] | 18 | 59 | –
NC1CCc2ccccc21 (stereo not drawn) [aminoindan] | – | – | does not inhibit MAO
